Laboratory results from US11427783B2, “Perfuming compositions” (Firmenich SA, priority 2016, dated 2022).
Where a name gives a salt, the structure may show the parent alone. Read-outs that look alike come from different tables or passages of the source.

Legend:
[1] = Volatility of perfuming compounds in air; format: physicochemical
[2] = Odor threshold of perfuming compounds in air
[3] = Log P (n-octanol/water) of perfuming compounds
[4] = n-octanol/water, perfuming compounds having a fruity note (Table 6)
[5] = Table 5, perfuming compounds having a green note

SMILES | Volatility ([1]; Table 4, watery note) [μg/l air] | logP (physchem; n-octanol/water) | Log P (n-octanol/water) ([3]; Table 7, citrus note) | Log P (n-octanol/water) [3, 4] | Volatility [1, 5] [μg/l air] | Log P (n-octanol/water) [3, 5] | Volatility ([1]; Table 7, citrus note) [μg/l air] | Odor Threshold ([2]; Table 4, watery note) [μg/l air] | Odor Threshold ([2]; Table 7, citrus note) [μg/l air] | logP (physchem)
CC(C=O)Cc1ccc(C(C)(C)C)cc1 (racemic) [(+−)-2-methyl-3-[4-(2-methyl-2-propanyl)phenyl]propanal] | 12.86 | 3.9 |  |  |  |  |  | 2.39E−04 |  | 
CCCCCCCOC(C)=O [heptyl acetate] |  | 3.69 | 3.69 |  |  |  |  |  | 1.32E−01 | 
CC(CC=O)CCCC(C)(C)O (racemic) [(+−)-7-hydroxy-3,7-dimethyloctanal] | 12.81 | 2 |  |  |  |  |  | 6.98E−03 |  | 
COc1ccc(CC(C)C=O)cc1 (racemic) [(+−)-3-(4-methoxyphenyl)-2-methylpropanal] | 18.99 | 2.8 |  |  | 18.99 | 2.80 |  | 9.79E−03 |  | 
CC(=O)OC(C)c1ccccc1 (racemic) [(+−)-1-PHENYLETHYL ACETATE] |  | 2.22 | 2.22 |  |  |  |  |  | 4.43E−02 | 
CCCCC[C@H]1C(=O)CC[C@@H]1CC(=O)OC (racemic) [methyl 2-((1RS,2RS)-3-oxo-2-pentylcyclopentyl)acetate] |  | 2.92 |  |  |  |  | 2.12 |  | 5.77E−04 | 
Cc1ccc2c(c1)CC(C)(CO)C2 (racemic) | 4.86 | 3.12 |  |  |  |  |  | 1.28E−04 |  | 
C=CC(C)CC(=O)CC(C)C (racemic) |  | 3.12 | 3.12 |  |  |  |  |  | 2.78E−01 | 
CC(C)=CCCC1=CCC(C)(C=O)CC1 (racemic) | 26.54 | 5.14 |  |  |  |  |  | 2.72E−02 |  | 
CCCCCCCCCCCC#N [DODECANENITRILE] | 56.74 | 1.61 |  |  |  |  |  | 3.20E−06 |  | 
CCCCCCCCOC(C)=O [octyl acetate] |  | 4.29 | 4.29 |  |  |  |  |  | 1.76E−01 | 
C=CC(C)(CCC=C(C)C)OC(C)=O (racemic) [(+−)-1,5-DIMETHYL-1-VINYL-4-HEXENYL ACETATE] |  |  | 4.04 | 4.04 |  |  |  |  | 7.40E−02 | 4.04
CC(C)CC1CC(C)(O)CCO1 (racemic) [(+−)-TETRAHYDRO-2-ISOBUTYL-4-METHYL-4(2H)-PYRANOL] | 79.79 | 2.22 |  |  |  |  |  | 1.35E−02 |  | 
CCC(C)C(=O)OC(C)C (racemic) [(+−)-ISOPROPYL 2-METHYLBUTANOATE] |  | 2.85 | 2.85 |  |  |  |  |  | 8.42E−03 | 
CC(C)(C)c1ccc2c(c1)OCC(=O)CO2 [7-(2-methyl-2-propanyl)-2H-1,5-benzodioxepin-3(4H)-one] | 4.37 | 2.97 |  |  | 4.37 | 2.97 |  | 1.53E−04 |  | 
CCOc1ccc2ccccc2c1 [2-ETHOXYNAPHTHALENE] |  | 3.82 |  |  |  |  | 22.67 |  | 3.57E−03 | 
COC(=O)c1c(C)cc(O)c(C)c1O [METHYL 2,4-DIHYDROXY-3,6-DIMETHYLBENZOATE] | 1.52 | 2.3 |  |  |  |  |  | 4.89E−06 |  | 
CC1=CC2CC(C=O)C1CC2C(C)C (stereo not drawn) [8-ISOPROPYL-6-METHYL-BICYCLO[2.2.2]OCT-5-ENE-2-CARBALDEHYDE] | 131.02 | 3.81 |  |  | 131.02 | 3.81 |  | 7.11E−05 |  | 
CC(C=O)Cc1ccc2c(c1)OCO2 (racemic) [(+−)-3-(1,3-BENZODIOXOL-5-YL)-2-METHYLPROPANAL] | 3.57 |  |  |  |  |  |  | 2.23E−04 |  | 1.28
CC(C=O)Cc1ccc(C(C)C)cc1 (racemic) [(+−)-3-(4-isopropylphenyl)-2-methylpropanal] | 24.85 | 3.59 |  |  |  |  |  | 3.00E−03 |  | 
COCC(C)Cc1ccccc1 (racemic) [(+−)-(3-methoxy-2-methylpropyl)benzene] |  | 3.57 | 3.57 | 3.57 |  |  |  |  | 1.51E−02 | 
CC1=CCC(C(C)C)=CC1 [1-methyl-4-(2-propanyl)-1,4-cyclohexadiene] |  |  |  |  |  |  | 4298.67 |  | 1.16E−01 | 5.87
CCCCCCC#CC(=O)OC [METHYL 2-NONYNOATE] | 91.76 | 3.51 |  |  | 91.76 | 3.51 |  | 1.60E−03 |  | 
CCCc1ccc2c(c1)OCC(=O)CO2 [7-PROPYL-2H,4H-1,5-BENZODIOXEPIN-3-ONE] | 4.85 | 2.79 |  |  | 4.85 | 2.79 |  | 6.43E−05 |  | 
CCCCCC(C#N)CCC (racemic) [(+−)-2-propylheptanenitrile] |  | 3.67 | 3.67 |  |  |  |  |  | 7.83E−02 | 
O=COCCc1ccccc1 [2-PHENYLETHYL FORMATE] |  | 1.9 | 1.90 | 1.90 |  |  |  |  | 8.34E−04 | 
CCCCCCCCCC(C)C=O (racemic) [(+−)-2-methylundecanal] | 75.55 | 5.01 |  |  |  |  |  | 7.24E−05 |  | 

Further lines, with some results ahead:

Volatility ([1]; Table 4, watery note) [μg/l air] | logP (physchem; n-octanol/water) | Log P (n-octanol/water) ([3]; Table 7, citrus note) | Log P (n-octanol/water) [3, 4] | Volatility [1, 5] [μg/l air] | Log P (n-octanol/water) [3, 5] | Volatility ([1]; Table 7, citrus note) [μg/l air] | SMILES | Odor Threshold ([2]; Table 4, watery note) [μg/l air] | Odor Threshold ([2]; Table 7, citrus note) [μg/l air] | logP (physchem)
136.73 | 3.93 |  |  |  |  |  | C=CCCCCCCCCC=O [10-undecenal] | 3.15E−03 |  | 
 | 1.62 | 1.62 | 1.62 |  |  |  | CCC/C=C/C=O [(2E)-2-HEXENAL] |  | 2.53E−03 | 
98.76 | 2.68 |  |  | 98.76 | 2.68 |  | CC/C=C\CC/C=C/CO [(2E,6Z)-2,6-NONADIEN-1-OL] | 3.22E−06 |  | 
472.01 | 2.9 |  |  | 472.01 |  |  | CCCCCC#CC(=O)OC [METHYL 2-OCTYNOATE″, METHYL 2-OCTYNOATE] | 8.31E−04 |  | 
178.29 | 4.56 |  |  |  |  |  | CCCCCCCCCCC=O [undecanal] | 1.65E−03 |  | 
 | 2 | 2.00 |  | 68294.85 |  | 68294.85 | CCCCCC=O [hexanal] |  | 1.76E−03 | 
18.23 | 5.2 |  |  |  |  |  | CC(C)=CCCC(C)CCCC(C)C=O (racemic) | 1.59E−02 |  | 
466.56 | 3.99 |  |  |  |  |  | CCCCCCCCCC=O [DECANAL″, DECANAL] | 1.92E−03 |  | 
 | 4.24 |  |  |  |  | 76.57 | CC(C)CCCC(C)CCO (racemic) |  | 4.59E−02 | 
144.79 | 4.94 |  |  |  |  |  | CCCCCCCCCCCC=O [DODECANAL] | 9.90E−04 |  | 
 | 3.15 |  | 3.15 |  |  |  | CC(C)=CCCC(C)C=O (racemic) | 2.11E−04 |  | 
 | 3.42 | 3.42 |  | 2777.63 |  | 2777.63 | CCCCCCCCC=O [nonanal] |  | 8.14E−03 | 
